Measurements reported in ChEMBL document CHEMBL4507276 (2021).

Assays:
[1] = target: Casein kinase I isoform gamma-2 (Homo sapiens) (UniProt P78368); conditions: Compound concentration 1000.0 nM
[2] = target: Serine/threonine-protein kinase 32B (Homo sapiens) (UniProt Q9NY57); conditions: Compound concentration 1000.0 nM
[3] = target: Serine/threonine-protein kinase PAK 1 (Homo sapiens) (UniProt Q13153); conditions: Compound concentration 1000.0 nM
[4] = target: T1, Serine/threonine-protein kinase Nek2 (Homo sapiens) (UniProt P51955); conditions: Compound concentration 1000.0 nM
T1 sequence (whole entry): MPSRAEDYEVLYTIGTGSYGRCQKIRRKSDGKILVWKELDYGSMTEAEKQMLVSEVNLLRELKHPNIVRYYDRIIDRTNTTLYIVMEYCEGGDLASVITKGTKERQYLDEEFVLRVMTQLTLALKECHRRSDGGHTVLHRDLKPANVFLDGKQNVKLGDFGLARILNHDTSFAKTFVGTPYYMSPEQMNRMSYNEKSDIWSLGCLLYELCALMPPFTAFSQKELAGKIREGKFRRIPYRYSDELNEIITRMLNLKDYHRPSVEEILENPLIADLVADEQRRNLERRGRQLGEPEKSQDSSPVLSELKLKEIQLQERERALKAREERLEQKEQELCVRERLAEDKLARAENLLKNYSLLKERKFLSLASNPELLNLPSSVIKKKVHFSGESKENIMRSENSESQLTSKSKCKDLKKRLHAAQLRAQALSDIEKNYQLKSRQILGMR

[5] = target: T2, Serine/threonine-protein kinase Sgk1 (Homo sapiens) (UniProt O00141); conditions: Compound concentration 1000.0 nM
T2 sequence (whole entry): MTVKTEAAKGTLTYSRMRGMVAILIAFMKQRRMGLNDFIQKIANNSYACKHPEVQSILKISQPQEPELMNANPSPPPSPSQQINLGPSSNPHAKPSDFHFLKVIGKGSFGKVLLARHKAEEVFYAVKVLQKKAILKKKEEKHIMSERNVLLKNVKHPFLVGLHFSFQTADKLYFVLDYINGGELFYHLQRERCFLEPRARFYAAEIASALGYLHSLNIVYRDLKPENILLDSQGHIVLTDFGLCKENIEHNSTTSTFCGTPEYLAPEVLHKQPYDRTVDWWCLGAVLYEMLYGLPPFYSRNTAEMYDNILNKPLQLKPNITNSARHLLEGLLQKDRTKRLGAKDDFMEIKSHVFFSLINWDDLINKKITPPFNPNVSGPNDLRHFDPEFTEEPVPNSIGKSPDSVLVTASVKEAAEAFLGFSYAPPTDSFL

[6] = target: Non-receptor tyrosine-protein kinase TYK2 (Homo sapiens) (UniProt P29597); conditions: Compound concentration 1000.0 nM
Non-receptor tyrosine-protein kinase TYK2 (Homo sapiens), sequence (P29597 whole entry): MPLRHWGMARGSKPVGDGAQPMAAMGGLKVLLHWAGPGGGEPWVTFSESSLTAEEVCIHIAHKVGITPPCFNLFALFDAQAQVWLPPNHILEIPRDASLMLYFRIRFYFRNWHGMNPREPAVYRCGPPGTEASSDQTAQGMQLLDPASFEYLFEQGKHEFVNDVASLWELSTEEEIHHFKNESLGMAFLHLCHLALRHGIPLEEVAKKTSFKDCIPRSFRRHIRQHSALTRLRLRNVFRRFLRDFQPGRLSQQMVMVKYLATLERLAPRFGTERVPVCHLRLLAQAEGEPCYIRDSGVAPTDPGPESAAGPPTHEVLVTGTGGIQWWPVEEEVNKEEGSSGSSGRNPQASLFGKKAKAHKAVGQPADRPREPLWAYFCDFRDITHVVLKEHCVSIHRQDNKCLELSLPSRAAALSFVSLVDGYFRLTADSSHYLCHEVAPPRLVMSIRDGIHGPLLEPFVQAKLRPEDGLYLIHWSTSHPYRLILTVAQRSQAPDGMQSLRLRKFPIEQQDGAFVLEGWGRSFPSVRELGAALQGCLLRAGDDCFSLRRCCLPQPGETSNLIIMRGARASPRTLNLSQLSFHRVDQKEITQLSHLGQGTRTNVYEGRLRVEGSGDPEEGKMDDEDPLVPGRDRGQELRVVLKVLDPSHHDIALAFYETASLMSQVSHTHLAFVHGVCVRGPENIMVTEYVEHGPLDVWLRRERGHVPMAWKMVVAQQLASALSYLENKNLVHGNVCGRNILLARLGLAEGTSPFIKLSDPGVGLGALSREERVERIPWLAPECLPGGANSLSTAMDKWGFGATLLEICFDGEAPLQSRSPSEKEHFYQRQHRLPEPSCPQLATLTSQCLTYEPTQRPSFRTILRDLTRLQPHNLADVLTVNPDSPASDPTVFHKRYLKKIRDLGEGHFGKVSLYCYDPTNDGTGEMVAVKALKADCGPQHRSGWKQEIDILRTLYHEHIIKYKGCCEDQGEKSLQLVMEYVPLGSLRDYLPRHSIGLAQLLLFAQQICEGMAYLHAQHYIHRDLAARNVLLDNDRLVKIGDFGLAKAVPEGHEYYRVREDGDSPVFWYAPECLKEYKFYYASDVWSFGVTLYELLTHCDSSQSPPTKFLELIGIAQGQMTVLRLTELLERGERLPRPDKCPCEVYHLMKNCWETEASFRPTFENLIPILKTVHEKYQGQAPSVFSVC

[7] = target: Cyclin-dependent kinase 8 (Homo sapiens) (UniProt P49336); conditions: Compound concentration 1000.0 nM
[8] = target: T3, Muscarinic acetylcholine receptor M2 (Homo sapiens) (UniProt P08172); conditions: Compound concentration 10.0 uM
T3 sequence (whole entry): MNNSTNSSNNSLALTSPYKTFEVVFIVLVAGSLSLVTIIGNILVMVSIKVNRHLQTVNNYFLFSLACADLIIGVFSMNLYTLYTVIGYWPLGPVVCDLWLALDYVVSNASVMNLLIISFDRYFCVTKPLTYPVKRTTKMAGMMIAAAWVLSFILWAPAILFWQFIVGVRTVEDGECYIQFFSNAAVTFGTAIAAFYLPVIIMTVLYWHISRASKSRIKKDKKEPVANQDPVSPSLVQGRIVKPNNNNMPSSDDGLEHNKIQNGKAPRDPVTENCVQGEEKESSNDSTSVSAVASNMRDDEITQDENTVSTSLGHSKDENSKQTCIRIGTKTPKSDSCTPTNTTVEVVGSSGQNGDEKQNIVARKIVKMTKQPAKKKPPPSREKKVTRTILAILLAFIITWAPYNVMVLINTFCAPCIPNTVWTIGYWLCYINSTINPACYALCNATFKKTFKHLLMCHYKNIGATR

[9] = target: Calcium-dependent protein kinase 1 (Plasmodium falciparum) (UniProt P62344); conditions: Compound concentration 1000.0 nM
Calcium-dependent protein kinase 1 (Plasmodium falciparum), sequence (P62344 2-524 limits assumed): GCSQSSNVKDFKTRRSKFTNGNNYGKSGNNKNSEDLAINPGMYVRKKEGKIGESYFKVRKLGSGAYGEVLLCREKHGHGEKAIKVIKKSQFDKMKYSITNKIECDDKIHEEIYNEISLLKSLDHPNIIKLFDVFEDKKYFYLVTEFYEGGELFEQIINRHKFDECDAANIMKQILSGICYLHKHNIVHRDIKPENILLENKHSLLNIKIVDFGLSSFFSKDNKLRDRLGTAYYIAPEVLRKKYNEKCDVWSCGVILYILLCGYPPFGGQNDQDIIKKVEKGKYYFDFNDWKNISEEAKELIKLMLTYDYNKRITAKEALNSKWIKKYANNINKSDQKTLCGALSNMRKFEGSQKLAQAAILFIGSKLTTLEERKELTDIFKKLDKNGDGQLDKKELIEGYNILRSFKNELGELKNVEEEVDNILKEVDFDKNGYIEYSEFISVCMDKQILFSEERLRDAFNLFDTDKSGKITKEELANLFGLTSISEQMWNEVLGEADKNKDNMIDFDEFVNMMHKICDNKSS

[10] = target: GABA-A receptor; anion channel (Rattus norvegicus) (UniProt O09028+P15431+P18506+P18508+P19969+P20236+P23574+P23576+P28471+P28473+P30191+P62813+P63079+P63138+Q91ZM7+Q9ES14); conditions: Compound concentration 10.0 uM
[11] = target: Serine/threonine-protein kinase D1 (Homo sapiens) (UniProt Q15139); conditions: Compound concentration 1000.0 nM
[12] = target: T4, TGF-beta receptor type-1 (Homo sapiens) (UniProt P36897); conditions: Compound concentration 1000.0 nM
T4 sequence (whole entry): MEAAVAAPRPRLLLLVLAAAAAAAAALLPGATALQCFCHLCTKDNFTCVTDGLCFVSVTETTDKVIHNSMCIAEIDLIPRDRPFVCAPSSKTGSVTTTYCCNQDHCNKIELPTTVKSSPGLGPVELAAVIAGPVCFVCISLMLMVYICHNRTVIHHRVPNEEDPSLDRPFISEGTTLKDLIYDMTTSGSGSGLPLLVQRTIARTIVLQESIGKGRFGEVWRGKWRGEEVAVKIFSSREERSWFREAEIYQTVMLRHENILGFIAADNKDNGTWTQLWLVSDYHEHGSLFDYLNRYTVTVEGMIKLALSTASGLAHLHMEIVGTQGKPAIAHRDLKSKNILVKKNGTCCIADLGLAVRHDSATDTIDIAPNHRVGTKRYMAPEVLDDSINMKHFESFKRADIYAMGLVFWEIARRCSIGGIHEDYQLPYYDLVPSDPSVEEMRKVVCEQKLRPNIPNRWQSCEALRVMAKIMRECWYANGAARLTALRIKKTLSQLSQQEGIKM

[13] = target: Ribosomal protein S6 kinase beta-1 (Homo sapiens) (UniProt P23443); conditions: Compound concentration 1000.0 nM
Ribosomal protein S6 kinase beta-1 (Homo sapiens), sequence (P23443 whole entry, looked up): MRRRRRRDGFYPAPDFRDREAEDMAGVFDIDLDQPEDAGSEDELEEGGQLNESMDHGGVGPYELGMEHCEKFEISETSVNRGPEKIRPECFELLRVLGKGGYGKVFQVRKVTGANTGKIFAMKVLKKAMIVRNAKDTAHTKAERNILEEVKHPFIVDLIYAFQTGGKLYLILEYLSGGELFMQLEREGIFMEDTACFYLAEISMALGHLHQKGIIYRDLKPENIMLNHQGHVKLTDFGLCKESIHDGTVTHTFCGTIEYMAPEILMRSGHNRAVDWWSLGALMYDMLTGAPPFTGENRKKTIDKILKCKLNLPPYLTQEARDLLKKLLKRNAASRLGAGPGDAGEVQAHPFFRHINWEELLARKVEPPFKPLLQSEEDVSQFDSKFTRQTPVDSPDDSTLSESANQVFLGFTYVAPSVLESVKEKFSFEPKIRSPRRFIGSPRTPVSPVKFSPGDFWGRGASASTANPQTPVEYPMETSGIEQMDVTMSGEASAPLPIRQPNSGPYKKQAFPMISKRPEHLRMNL

[14] = system: Epidermal growth factor receptor (Homo sapiens), P00533 [UNDEFINED MUTATION]; conditions: Compound concentration 1000.0 nM
[15] = system: Phosphatidylinositol 4,5-bisphosphate 3-kinase catalytic subunit alpha isoform (Homo sapiens), P42336 [E542K]; conditions: Compound concentration 1000.0 nM
[16] = target: Casein kinase II subunit alpha (Homo sapiens) (UniProt P68400); conditions: Compound concentration 1000.0 nM
[17] = target: Myosin-IIIa (Homo sapiens) (UniProt Q8NEV4); conditions: Compound concentration 1000.0 nM
Myosin-IIIa (Homo sapiens), sequence (Q8NEV4 whole entry): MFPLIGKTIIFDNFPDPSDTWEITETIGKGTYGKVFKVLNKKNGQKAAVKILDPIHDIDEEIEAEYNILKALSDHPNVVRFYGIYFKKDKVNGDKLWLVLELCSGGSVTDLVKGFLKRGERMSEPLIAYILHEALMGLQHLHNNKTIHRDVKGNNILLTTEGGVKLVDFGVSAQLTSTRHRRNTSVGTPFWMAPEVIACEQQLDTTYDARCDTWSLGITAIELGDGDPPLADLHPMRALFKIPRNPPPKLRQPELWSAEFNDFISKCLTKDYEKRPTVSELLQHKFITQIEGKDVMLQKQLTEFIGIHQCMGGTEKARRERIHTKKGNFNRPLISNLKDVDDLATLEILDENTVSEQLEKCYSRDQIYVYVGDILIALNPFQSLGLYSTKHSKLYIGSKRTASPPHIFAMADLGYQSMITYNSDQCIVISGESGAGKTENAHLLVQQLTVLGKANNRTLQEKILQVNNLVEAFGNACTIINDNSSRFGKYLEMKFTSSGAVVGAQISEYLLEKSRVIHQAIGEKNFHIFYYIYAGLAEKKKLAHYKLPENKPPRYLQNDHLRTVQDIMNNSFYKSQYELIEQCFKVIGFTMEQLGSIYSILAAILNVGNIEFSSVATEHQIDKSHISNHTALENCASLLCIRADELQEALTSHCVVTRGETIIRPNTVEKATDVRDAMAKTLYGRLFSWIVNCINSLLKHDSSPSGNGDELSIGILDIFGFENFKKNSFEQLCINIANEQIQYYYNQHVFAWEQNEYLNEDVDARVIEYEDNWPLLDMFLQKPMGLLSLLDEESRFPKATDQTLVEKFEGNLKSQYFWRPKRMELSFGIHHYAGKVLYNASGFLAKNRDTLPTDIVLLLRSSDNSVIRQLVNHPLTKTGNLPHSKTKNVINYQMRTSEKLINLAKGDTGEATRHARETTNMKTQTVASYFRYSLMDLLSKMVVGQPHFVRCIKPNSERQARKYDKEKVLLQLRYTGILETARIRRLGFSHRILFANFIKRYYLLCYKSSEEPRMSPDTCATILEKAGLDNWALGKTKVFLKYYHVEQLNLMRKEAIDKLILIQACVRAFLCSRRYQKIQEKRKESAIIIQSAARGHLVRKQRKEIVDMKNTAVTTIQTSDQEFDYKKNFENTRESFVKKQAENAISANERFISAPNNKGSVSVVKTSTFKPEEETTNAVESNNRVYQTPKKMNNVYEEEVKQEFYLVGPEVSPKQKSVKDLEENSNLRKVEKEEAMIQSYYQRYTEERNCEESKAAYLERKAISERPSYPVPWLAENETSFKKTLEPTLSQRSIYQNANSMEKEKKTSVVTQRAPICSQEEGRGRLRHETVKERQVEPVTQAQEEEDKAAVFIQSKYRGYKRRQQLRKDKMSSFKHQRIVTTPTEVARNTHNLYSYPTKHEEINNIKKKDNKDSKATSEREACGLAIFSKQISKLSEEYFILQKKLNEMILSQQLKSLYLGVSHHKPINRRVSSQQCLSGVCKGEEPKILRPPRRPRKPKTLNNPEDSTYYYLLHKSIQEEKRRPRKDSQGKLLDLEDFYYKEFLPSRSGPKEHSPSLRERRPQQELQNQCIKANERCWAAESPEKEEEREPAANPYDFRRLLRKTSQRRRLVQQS

[18] = target: Kappa-type opioid receptor (Homo sapiens) (UniProt P41145); conditions: Compound concentration 10.0 uM
Kappa-type opioid receptor (Homo sapiens), sequence (P41145 whole entry): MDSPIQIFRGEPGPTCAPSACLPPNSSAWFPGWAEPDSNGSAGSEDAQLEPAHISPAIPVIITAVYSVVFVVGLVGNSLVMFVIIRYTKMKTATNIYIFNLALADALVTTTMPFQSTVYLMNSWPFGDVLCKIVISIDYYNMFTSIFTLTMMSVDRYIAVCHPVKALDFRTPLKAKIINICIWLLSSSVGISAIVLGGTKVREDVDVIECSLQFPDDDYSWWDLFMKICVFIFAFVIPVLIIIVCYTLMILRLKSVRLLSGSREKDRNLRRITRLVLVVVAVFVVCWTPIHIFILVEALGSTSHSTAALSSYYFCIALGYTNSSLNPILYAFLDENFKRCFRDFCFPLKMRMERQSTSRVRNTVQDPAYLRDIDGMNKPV

Casein kinase I isoform gamma-2 (Homo sapiens), sequence (P78368 whole entry, looked up, canonical isoform): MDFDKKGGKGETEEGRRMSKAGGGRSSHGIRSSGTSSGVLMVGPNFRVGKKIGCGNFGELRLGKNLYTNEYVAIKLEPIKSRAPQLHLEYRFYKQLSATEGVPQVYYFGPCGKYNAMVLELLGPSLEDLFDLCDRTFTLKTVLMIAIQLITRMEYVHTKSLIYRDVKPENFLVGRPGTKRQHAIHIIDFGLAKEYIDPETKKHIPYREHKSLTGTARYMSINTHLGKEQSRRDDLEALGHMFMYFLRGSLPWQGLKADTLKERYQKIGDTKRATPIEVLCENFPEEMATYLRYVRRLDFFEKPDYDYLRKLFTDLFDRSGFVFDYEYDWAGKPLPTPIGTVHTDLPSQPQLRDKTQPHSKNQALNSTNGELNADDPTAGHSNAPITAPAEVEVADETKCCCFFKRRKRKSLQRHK
Serine/threonine-protein kinase 32B (Homo sapiens), sequence (Q9NY57 whole entry): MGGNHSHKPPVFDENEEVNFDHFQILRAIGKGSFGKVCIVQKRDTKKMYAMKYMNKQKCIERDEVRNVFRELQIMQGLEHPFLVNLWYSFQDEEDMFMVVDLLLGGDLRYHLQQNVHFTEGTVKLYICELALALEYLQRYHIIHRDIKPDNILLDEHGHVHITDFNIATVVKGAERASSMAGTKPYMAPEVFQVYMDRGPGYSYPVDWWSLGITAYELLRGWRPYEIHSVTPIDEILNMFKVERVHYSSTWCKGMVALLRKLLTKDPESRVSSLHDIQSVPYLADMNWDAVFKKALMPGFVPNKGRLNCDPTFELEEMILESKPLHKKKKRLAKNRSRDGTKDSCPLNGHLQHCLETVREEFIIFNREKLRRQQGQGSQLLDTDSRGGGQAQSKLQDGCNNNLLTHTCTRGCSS

CN(C)C(=O)Cn1cc(-c2nc(C3(c4ccc(-c5cnc(N)nc5)cc4)CC3)no2)cn1 [BI 0153]
inactive: residual activity [1] 82% | residual activity [2] 100% | residual activity [3] 100% | residual activity [4] 100% | residual activity [5] 96% | residual activity [6] 90% | residual activity [7] 100% | inhibition [8] -0.311% | residual activity [9] 82% | inhibition [10] 19.4% | residual activity [11] 100% | residual activity [12] 97% | residual activity [13] 91% | residual activity [14] 80% | residual activity [15] 76% | residual activity [16] 73% | residual activity [17] 100% | inhibition [18] 16.2%

CN(C)C(=O)Cn1cc(-c2nc([C@@](C)(c3ccc(-c4cnc(N)nc4)cc3)C3CC3)no2)cn1 [BI 665915]
inactive: residual activity [1] 100% | residual activity [2] 100% | residual activity [3] 100% | residual activity [4] 97% | residual activity [5] 91% | residual activity [6] 65% | residual activity [7] 89% | inhibition [8] -7.53% | residual activity [9] 58% | inhibition [10] 25.5% | residual activity [11] 100% | residual activity [12] 100% | residual activity [13] 83% | residual activity [14] 100% | residual activity [15] 79% | residual activity [16] 88% | residual activity [17] 100% | inhibition [18] 33.9%
